The source of these data is PubChem BioAssay (NCI).

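Grown in 96-well plates, cells were treated for 48 hours with each compound at five concentrations. Insufficient inhibition: endpoint recorded as highest concentration tested. GI50 marks 50% less growth. At the TGI there is no net growth.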

Some test systems named below: HL-60(TB) leukemia; CAKI-1 renal; OVCAR-3 ovarian; HT29 colon; NCI-H23 lung; HOP-92 NSCLC; RPMI-8226 leukemia; HCT-15 colon; K-562 leukemia.
Holding throughout (test): DTP human tumour cell line panel, 48 h

In general, GI50 refers to the concentration giving 50% growth inhibition. For orientation: TGI means the concentration giving total growth inhibition. High values mean lower sensitivity of the cells, low ones greater sensitivity of the cells. With `N#Cc1ccnc(N2C(=O)CC[C@H]2C(=O)N(c2cncc(F)c2)[C@H](C(=O)NC2CC(F)(F)C2)c2ccccc2Cl)c1`, the GI50 was greater than 100 µM in the test with HL-60(TB) leukemia; greater than 100 µM with CAKI-1 renal; 63.9 µM in the test on OVCAR-3 ovarian; 56.2 µM in the test with HT29 colon; greater than 100 µM in the test on NCI-H23 lung; 73 µM with HOP-92 NSCLC. The GI50 was 97.3 µM in the test with RPMI-8226 leukemia, 88.6 µM with HCT-15 colon and greater than 100 µM in the test on K-562 leukemia. Besides, the TGI with HL-60(TB) leukemia, in the test on CAKI-1 renal, in the test with OVCAR-3 ovarian, in the test on HT29 colon, in the test with NCI-H23 lung and in the test with HOP-92 NSCLC was greater than 100 µM in each case. Also, the concentration for total growth inhibition (TGI) with RPMI-8226 leukemia, with HCT-15 colon and in the test on K-562 leukemia was greater than 100 µM throughout.
For `COc1cc2nc(Nc3cccc(F)c3)nc(Nc3cc(C)[nH]n3)c2cc1OC`, the GI50 in the test with HL-60(TB) leukemia was 1.93 µM; with CAKI-1 renal, 1.76 µM; with OVCAR-3 ovarian, 1.82 µM; with HT29 colon, 1.99 µM; in the test with NCI-H23 lung it was 1.69 µM; with HOP-92 NSCLC it was 1.67 µM. Also, the GI50 was 1.69 µM with RPMI-8226 leukemia, 1.22 µM with HCT-15 colon and 1.36 µM in the test on K-562 leukemia. Moreover, the TGI in the test with HL-60(TB) leukemia was found to be 4.46 µM; in the test with CAKI-1 renal, 3.19 µM; with OVCAR-3 ovarian it was 3.41 µM; in the test with HT29 colon, 4.93 µM; with NCI-H23 lung it was 3.27 µM; in the test on HOP-92 NSCLC it was 3.21 µM. The total growth inhibition concentration (TGI) worked out at 5.6 µM in the test on RPMI-8226 leukemia, 2.72 µM in the test with HCT-15 colon and 4.94 µM with K-562 leukemia.
For the compound `CN(C)CCCc1c[nH]c2ccccc12`, the TGI in the test on HL-60(TB) leukemia, with CAKI-1 renal, in the test with OVCAR-3 ovarian, in the test with HT29 colon, in the test on NCI-H23 lung and with HOP-92 NSCLC was greater than 100 µM throughout. Further, the TGI with RPMI-8226 leukemia, in the test with HCT-15 colon and in the test on K-562 leukemia was greater than 100 µM each time.
Consider `NS(=O)(=O)c1ccc(CCN=C=S)cc1`, for which the GI50 with HL-60(TB) leukemia is 3.32 µM; in the test with CAKI-1 renal, 1.53 µM; with OVCAR-3 ovarian it was 1.7 µM; in the test on HT29 colon, 2.54 µM; in the test with NCI-H23 lung, 2.62 µM; in the test with HOP-92 NSCLC, 1.33 µM. Besides, the GI50 was 0.667 µM in the test with RPMI-8226 leukemia, 1.3 µM in the test on HCT-15 colon and 2.54 µM in the test on K-562 leukemia. The TGI in the test on HL-60(TB) leukemia stood at 11.2 µM; in the test with CAKI-1 renal, 3.03 µM; in the test on OVCAR-3 ovarian, 3.13 µM; in the test on HT29 colon, 6.66 µM; in the test on NCI-H23 lung, 7.54 µM; with HOP-92 NSCLC, 3.36 µM. Also, the TGI with RPMI-8226 leukemia was 5.2 µM; in the test on HCT-15 colon, 3.37 µM; with K-562 leukemia it was greater than 100 µM.
For the compound `CCOC(=O)c1c(C(F)(F)F)n([O-])c2ccc(OC)cc2[n+]1=O`, the GI50 with HL-60(TB) leukemia was 3.01 µM; with CAKI-1 renal, 3.46 µM; in the test on OVCAR-3 ovarian, 4.31 µM; with HT29 colon, 7.89 µM; in the test with NCI-H23 lung, 3.68 µM; with HOP-92 NSCLC it was 2.51 µM. The GI50 was 3.49 µM in the test with RPMI-8226 leukemia, 3.88 µM in the test with HCT-15 colon and 3.76 µM with K-562 leukemia. The TGI in the test with HL-60(TB) leukemia is 9.63 µM; with CAKI-1 renal, 19.9 µM; in the test with OVCAR-3 ovarian it was 44.8 µM; with HT29 colon, greater than 100 µM; with NCI-H23 lung, 26.6 µM; in the test with HOP-92 NSCLC, 11.9 µM. Also, the TGI was 33.7 µM in the test on RPMI-8226 leukemia, greater than 100 µM in the test on HCT-15 colon and 24.9 µM in the test on K-562 leukemia.
Regarding `Nc1c(C(=O)Nc2ccccc2Cl)sc2nc3c(cc12)CCCCCC3`, the GI50 was 2.73 µM in the test on HL-60(TB) leukemia; 3.74 µM in the test on CAKI-1 renal; 3.23 µM in the test on OVCAR-3 ovarian; 2.39 µM in the test with HT29 colon; 8.83 µM in the test with NCI-H23 lung; 1.77 µM in the test on HOP-92 NSCLC. In addition, the values for the GI50 in the test on RPMI-8226 leukemia, in the test with HCT-15 colon and in the test with K-562 leukemia were greater than 100 µM, 1.59 µM and 0.541 µM, respectively. The TGI with HL-60(TB) leukemia is greater than 100 µM; with CAKI-1 renal, greater than 100 µM; in the test on OVCAR-3 ovarian it was 12.7 µM; with HT29 colon, 13.4 µM; with NCI-H23 lung, greater than 100 µM; in the test on HOP-92 NSCLC, 6.54 µM. For the same compound, the TGI in the test on RPMI-8226 leukemia, in the test on HCT-15 colon and in the test with K-562 leukemia was greater than 100 µM throughout.
In the case of `CCCCCCCC[N+](C)(CCCCCCCC)CCCCCCCC`, the concentration for 50% growth inhibition (GI50) in the test on HL-60(TB) leukemia was 0.14 µM; in the test with CAKI-1 renal it was 0.0838 µM; in the test on OVCAR-3 ovarian, 0.267 µM; with HT29 colon, 0.295 µM; with NCI-H23 lung, 0.267 µM; with HOP-92 NSCLC, 0.214 µM. In addition, the results for the 50% growth inhibitory concentration (GI50) in the test with RPMI-8226 leukemia, in the test on HCT-15 colon and in the test with K-562 leukemia were 0.0463 µM, 0.715 µM and 0.108 µM, respectively. In addition, the TGI came out at 0.366 µM with HL-60(TB) leukemia; 0.639 µM in the test on CAKI-1 renal; 0.792 µM with OVCAR-3 ovarian; 1.25 µM in the test with HT29 colon; 1.13 µM in the test with NCI-H23 lung; 0.803 µM in the test on HOP-92 NSCLC. In addition, the concentration for total growth inhibition (TGI) with RPMI-8226 leukemia amounted to 0.242 µM; in the test on HCT-15 colon it was 2.1 µM; in the test on K-562 leukemia it was 0.447 µM.
As to `O=C(Nc1c(O)[nH]c(=S)[nH]c1=O)c1ccc2ccccc2n1`, the concentration for total growth inhibition (TGI) in the test with HL-60(TB) leukemia, in the test with CAKI-1 renal, in the test with OVCAR-3 ovarian, with HT29 colon, with NCI-H23 lung and in the test with HOP-92 NSCLC was greater than 100 µM throughout. Further, the TGI in the test with RPMI-8226 leukemia, in the test with HCT-15 colon and in the test on K-562 leukemia was greater than 100 µM in each case.
`O=C(/C=C\c1ccc(Cl)cc1Cl)c1cccs1`: the total growth inhibition concentration (TGI) in the test on HL-60(TB) leukemia was greater than 100 µM; in the test on CAKI-1 renal, 80.4 µM; in the test on OVCAR-3 ovarian, 89.7 µM; with HT29 colon, 64.5 µM; in the test with NCI-H23 lung it was 44 µM; in the test with HOP-92 NSCLC, 69.1 µM. The concentration for total growth inhibition (TGI) with RPMI-8226 leukemia is 12.8 µM; in the test with HCT-15 colon it was 34.4 µM; with K-562 leukemia, greater than 100 µM.
